The target of experiment [1] is T1, Galectin-3 (Homo sapiens, UniProt P17931). Put plainly: Binding affinity to galectin-3 (unknown origin).
The target in experiment [2] is T2, Galectin-1 (Homo sapiens, UniProt P09382). As to the kind of experiment: Binding affinity to galectin-1 (unknown origin) by fluorescence polarization assay. For orientation: In fluorescence polarisation assays a small probe gives low polarisation when free and higher when bound to something large.
The species entered for the next experiment is Homo sapiens. As to the kind of experiment: Selectivity ratio of Kd for galectin-1 (unknown origin) to Kd for galectin-3 (unknown origin).
For experiment [3], the target named is T1, Galectin-3. Put plainly: Binding affinity to galectin-3 (unknown origin) by fluorescence polarization assay.
Experiment [4] concerns the target T1, Galectin-3. As to the kind of experiment: Ratio of LacNAc-beta-OMe Kd to compound Kd for galectin-3 (unknown origin).
Experiment [5] has as its target T2, Galectin-1. As to the kind of experiment: Ratio of LacNAc-beta-OMe Kd to compound Kd for galectin-1 (unknown origin).
Experiment [6] deals with T1, Galectin-3. Put plainly: Ratio of Thiodigalactoside Kd to compound Kd for galectin-3 (unknown origin).
Experiment [7] has as its target T2, Galectin-1. As to the kind of experiment: Ratio of Thiodigalactoside Kd to compound Kd for galectin-1 (unknown origin).

Results on nine molecules are retold here after ChEMBL document CHEMBL2311254, “Tuning the preference of thiodigalactoside- and lactosamine-based ligands to galectin-3 over galectin-1” (J Med Chem, 2013).

T2 sequence (P09382 whole entry): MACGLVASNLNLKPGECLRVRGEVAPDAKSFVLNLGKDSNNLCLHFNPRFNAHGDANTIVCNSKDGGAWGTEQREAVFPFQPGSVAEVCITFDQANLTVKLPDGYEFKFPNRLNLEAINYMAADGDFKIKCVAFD
T1 sequence (P17931 whole entry): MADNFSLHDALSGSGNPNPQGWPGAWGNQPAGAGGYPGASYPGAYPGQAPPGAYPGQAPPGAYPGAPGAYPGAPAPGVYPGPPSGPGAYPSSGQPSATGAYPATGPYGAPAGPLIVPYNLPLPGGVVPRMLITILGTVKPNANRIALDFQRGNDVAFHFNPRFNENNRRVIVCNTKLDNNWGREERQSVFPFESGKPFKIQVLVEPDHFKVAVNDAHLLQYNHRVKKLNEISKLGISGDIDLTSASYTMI

`OC[C@H]1O[C@@H](S[C@@H]2O[C@H](CO)[C@H](O)[C@H](O)[C@H]2O)[C@H](O)[C@@H](O)[C@H]1O`: the Activity on Galectin-3 [1] turned out to be 43 µM.

Usually Kd stands for a measure of binding affinity in units of concentration. Higher therefore signals a looser complex. Regarding `[N-]=[N+]=NCCCO[C@@H]1O[C@H](CO)[C@@H](O[C@@H]2O[C@H](CO)[C@H](O)[C@H](n3cc(-c4ccc(Oc5ccccc5)cc4)nn3)[C@H]2O)[C@H](O)[C@H]1N1C(=O)c2ccccc2C1=O`, the results for the Kd at Galectin-1 [2] and at Galectin-3 [3] were 28000 nM and 2200 nM, respectively. Besides, in the experiment filed under Homo sapiens, the Selectivity ratio amounted to 13. Moreover, the Ratio came out at 31 on Galectin-3 [4] and 2.5 on Galectin-1 [5].

As for `[N-]=[N+]=NCCCO[C@@H]1O[C@H](CO)[C@@H](O[C@@H]2O[C@H](CO)[C@H](O)[C@H](OCc3ccc(Oc4ccccc4)cc3)[C@H]2O)[C@H](O)[C@H]1NC(=O)c1ccccc1`, the equilibrium dissociation constant (Kd) was 180000 nM at Galectin-1 [2] and 8100 nM on Galectin-3 [3]. The Selectivity ratio in the experiment listed under Homo sapiens stood at 22. The Ratio at Galectin-3 [4] was 8.5; at Galectin-1 [5], 0.4.

Consider `[N-]=[N+]=NCCCO[C@@H]1O[C@H](CO)[C@@H](O[C@@H]2O[C@H](CO)[C@H](O)[C@H](n3cc(-c4ccc(Oc5ccccc5)cc4)nn3)[C@H]2O)[C@H](O)[C@H]1NC(=O)c1ccccc1`, for which the figures for the dissociation constant Kd at Galectin-1 [2] and on Galectin-3 [3] were 6700 nM and 2800 nM, respectively. In the experiment listed under Homo sapiens, the Selectivity ratio came out at 2.4. The Ratio is 25 on Galectin-3 [4] and 10 at Galectin-1 [5].

As to `OC[C@H]1O[C@@H](S[C@@H]2O[C@H](CO)[C@H](O)[C@H](n3cc(-c4ccccc4)nn3)[C@H]2O)[C@H](O)[C@@H](n2cc(-c3ccccc3)nn2)[C@H]1O`, the Kd on Galectin-1 [2] came out at 49 nM; on Galectin-3 [3] it was 44 nM. Also, the Selectivity ratio in the experiment listed under Homo sapiens was found to be 1. Moreover, the Ratio was 980 on Galectin-3 [6] and 490 on Galectin-1 [7].

For `OC[C@H]1O[C@@H](S[C@@H]2O[C@H](CO)[C@H](O)[C@H](n3cc(-c4ccc(Oc5ccccc5)cc4)nn3)[C@H]2O)[C@H](O)[C@@H](n2cc(-c3ccc(Oc4ccccc4)cc3)nn2)[C@H]1O`, the dissociation constant (Kd) at Galectin-1 [2] was found to be 84000 nM; on Galectin-3 [3], 360 nM. Also, the Selectivity ratio in the experiment filed under Homo sapiens amounted to 230. For the same molecule, the Ratio is 120 at Galectin-3 [6] and 0.3 on Galectin-1 [7].

As for `OC[C@H]1O[C@@H](S[C@@H]2O[C@H](CO)[C@H](O)[C@H](n3cc(-c4cccc(O)c4)nn3)[C@H]2O)[C@H](O)[C@@H](n2cc(-c3cccc(O)c3)nn2)[C@H]1O`, the Kd at Galectin-1 [2] is 13 nM; on Galectin-3 [3] it was 22 nM. In addition, in the experiment listed under Homo sapiens, the Selectivity ratio amounted to 0.6. The figures for the Ratio at Galectin-3 [6] and on Galectin-1 [7] were 1950 and 1850, respectively.

On to `[N-]=[N+]=NCCCO[C@@H]1O[C@H](CO)[C@@H](O[C@@H]2O[C@H](CO)[C@H](O)[C@H](OCc3ccc(Oc4ccccc4)cc3)[C@H]2O)[C@H](O)[C@H]1N1C(=O)c2ccccc2C1=O`, for which the equilibrium dissociation constant (Kd) on Galectin-1 [2] came out at 280000 nM; on Galectin-3 [3] it was 1200 nM. The Selectivity ratio in the experiment filed under Homo sapiens was 230. Moreover, the figures for the Ratio at Galectin-3 [4] and at Galectin-1 [5] were 58 and 0.3, respectively.

As to `CO[C@@H]1O[C@H](CO)[C@@H](O[C@@H]2O[C@H](CO)[C@H](O)[C@H](O)[C@H]2O)[C@H](O)[C@H]1NC(C)=O`, the Selectivity ratio in the experiment filed under Homo sapiens is 1. In addition, the affinity on Galectin-3 [3], expressed as Kd, was 69000 nM.
